test system: RBL-2H3 cells; experiment: Inhibition of 3H-serotonin release induced by ADNP/DNP-HSA immunogenic stimulation in RBL-2H3 cells; format: cell-based, rat; conditions: Rattus norvegicus, RBL-2H3, read-out: 3H-serotonin net release inhibition (%), 12.5 μM; + WIN 55,212-2 (30 μm) (Table 6)

Row | Structure (SMILES) | inhibition at 12.5 µM [%]
1 | NCCO [ethanolamine, reference compound] | 72

same assay, conditions: Rattus norvegicus, RBL-2H3, read-out: 3H-serotonin net release inhibition (%), 12.5 μM; - WIN (Table 6)

Row | Structure (SMILES) | inhibition at 12.5 µM [%]
2 | NCCO [ethanolamine, reference compound] | 6

same assay, conditions: Rattus norvegicus, RBL-2H3, read-out: 3H-serotonin release inhibition %, 0.2% DMSO; 30 μM (Table 8)

Row | Structure (SMILES) | inhibition at 30 µM [%]
3 | CCCCCCCCCCCCCCCC(=O)N[C@H](C)[C@@H](O)c1ccccc1 [Example 5, N-palmitoyl-[(1S,2R)-(+)-norephedrine]] | 82

same assay, conditions: Rattus norvegicus, RBL-2H3, read-out: 3H-serotonin release inhibition %, 0.2% DMSO; 50 μM (Table 8)

Row | Structure (SMILES) | inhibition at 50 µM [%]
4 | CCCCCCCCCCCCCCCC(=O)N1CCOCC1 [Example 29, N-palmitoyl-morpholine] | 36

same assay, conditions: Rattus norvegicus, RBL-2H3, read-out: 3H-serotonin release inhibition %, 0.2% DMSO; 100 μM (Table 8)

Row | Structure (SMILES) | inhibition at 100 µM [%]
5 | CCCCCCCCCCCCCCCC(=O)NCC(O)c1ccccc1 (stereo not drawn) [Example 3, N-(2-hydroxy-2-phenylethyl)-palmitoylamide] | 100
6 | CCCCCCCCCCCCCCCC(=O)N[C@H](CO)c1ccccc1 [Example 2, N-palmitoyl-[(S)-2-amino-2-phenylethanol]] | 100

same assay, conditions: Rattus norvegicus, RBL-2H3, read-out: 3H-serotonin release inhibition %, 0.2% DMSO; 200 μM (Table 8)

Row | Structure (SMILES) | inhibition at 200 µM [%]
7 | O=C(/C=C/CCCCCCCCC(=O)NCCCO)NCCCO [Example 13, N,N'-bis(3-hydroxypropyl)-trans-2-dodecenediamide] | 65

same assay, conditions: Rattus norvegicus, RBL-2H3, read-out: 3H-serotonin release inhibition %, 1% DMSO; 30 μM (Table 8)

Row | Structure (SMILES) | inhibition at 30 µM [%]
8 | CCCCCCCCCCCCCCCC(=O)N1CCOCC1 [Example 29, N-palmitoyl-morpholine] | 88

same assay, conditions: Rattus norvegicus, RBL-2H3, read-out: 3H-serotonin release inhibition %, 1% DMSO; 100 μM (Table 8)

Row | Structure (SMILES) | inhibition at 100 µM [%]
9 | CCCCCCCCCCCCCCCC(=O)NCC(O)c1ccccc1 (stereo not drawn) [Example 3, N-(2-hydroxy-2-phenylethyl)-palmitoylamide] | 100
10 | CCCCCCCCCCCCCCCC(=O)N[C@H](CO)c1ccccc1 [Example 2, N-palmitoyl-[(S)-2-amino-2-phenylethanol]] | 100
11 | CCCCCCCCCCCCCCCC(=O)N[C@H](C)[C@@H](O)c1ccccc1 [Example 5, N-palmitoyl-[(1S,2R)-(+)-norephedrine]] | 100

same assay, conditions: Rattus norvegicus, RBL-2H3, read-out: EC50, concentration inhibiting by 50% the net release of 3H serotonin, 0.2% DMSO; 15 minutes release period (Table 9)

Row | Structure (SMILES) | EC50 [µM]
12 | CCCCCCCCCCCCCCCC(=O)NCC(O)c1ccccc1 (stereo not drawn) [Example 3, N-(2-hydroxy-2-phenylethyl)-palmitoylamide] | 1.2
13 | CCCCCCCCCCCCCCCC(=O)NCCc1ccc(O)cc1 [Example 34, N-(p-hydroxy-phenylethyl)-palmitoylamide] | 13
14 | CCCCCCCCCCCCCCCC(=O)N[C@H](CO)c1ccccc1 [Example 2, N-palmitoyl-[(S)-2-amino-2-phenylethanol]] | 1.8
15 | CCCCCCCCCCCCCCCC(=O)N1CCOCC1 [Example 29, N-palmitoyl-morpholine] | 42
16 | CCCCCCCCCCCCCCCC(=O)N[C@H](C)[C@@H](O)c1ccccc1 [Example 5, N-palmitoyl-[(1S,2R)-(+)-norephedrine]] | 8

same assay, conditions: Rattus norvegicus, RBL-2H3, read-out: EC50, concentration inhibiting by 50% the net release of 3H serotonin, 1% DMSO; 15 minutes release period (Table 9)

Row | Structure (SMILES) | EC50 [µM]
17 | CCCCCCCCCCCCCCCC(=O)NCC(O)c1ccccc1 (stereo not drawn) [Example 3, N-(2-hydroxy-2-phenylethyl)-palmitoylamide] | 4
18 | CCCCCCCCCCCCCCCC(=O)NCCc1ccc(O)cc1 [Example 34, N-(p-hydroxy-phenylethyl)-palmitoylamide] | 0.36
19 | CCCCCCCCCCCCCCCC(=O)N[C@H](CO)c1ccccc1 [Example 2, N-palmitoyl-[(S)-2-amino-2-phenylethanol]] | 5
20 | O=C(/C=C/CCCCCCCCC(=O)NCCCO)NCCCO [Example 13, N,N'-bis(3-hydroxypropyl)-trans-2-dodecenediamide] | 32
21 | CCCCCCCCCCCCCCCC(=O)N1CCOCC1 [Example 29, N-palmitoyl-morpholine] | 3.5
22 | CCCCCCCCCCCCCCCC(=O)N[C@H](C)[C@@H](O)c1ccccc1 [Example 5, N-palmitoyl-[(1S,2R)-(+)-norephedrine]] | 7.6

test system: not listed separately; experiment: Solubility in water and organic solvents; conditions: dmso, organic solvent or mixture

Row | Structure (SMILES) | solubility [µg/mL]
23 | CCCCCCCCCCCCCCCC(=O)NCC(O)c1ccccc1 (stereo not drawn) [Example 3, N-(2-hydroxy-2-phenylethyl)-palmitoylamide] | > 10000
24 | CCCCCCCCCCCCCCCC(=O)NCCc1ccc(O)cc1 [Example 34, N-(p-hydroxy-phenylethyl)-palmitoylamide] | > 10000
25 | CCCCCCCCCCCCCCCC(=O)N[C@H](CO)c1ccccc1 [Example 2, N-palmitoyl-[(S)-2-amino-2-phenylethanol]] | > 10000
26 | O=C(/C=C/CCCCCCCCC(=O)NCCCO)NCCCO [Example 13, N,N'-bis(3-hydroxypropyl)-trans-2-dodecenediamide] | > 5000
27 | CCCCCCCCCCCCCCCC(=O)N1CCOCC1 [Example 29, N-palmitoyl-morpholine] | > 10000
28 | CCCCCCCCCCCCCCCC(=O)N[C@H](C)[C@@H](O)c1ccccc1 [Example 5, N-palmitoyl-[(1S,2R)-(+)-norephedrine]] | > 10000

same assay, conditions: ethanol, organic solvent or mixture

Row | Structure (SMILES) | solubility [µg/mL]
29 | CCCCCCCCCCCCCCCC(=O)NCC(O)c1ccccc1 (stereo not drawn) [Example 3, N-(2-hydroxy-2-phenylethyl)-palmitoylamide] | > 10000
30 | CCCCCCCCCCCCCCCC(=O)NCCc1ccc(O)cc1 [Example 34, N-(p-hydroxy-phenylethyl)-palmitoylamide] | > 10000
31 | CCCCCCCCCCCCCCCC(=O)N[C@H](CO)c1ccccc1 [Example 2, N-palmitoyl-[(S)-2-amino-2-phenylethanol]] | > 10000
32 | CCCCCCCCCCCCCCCC(=O)N[C@H](C)[C@@H](O)c1ccccc1 [Example 5, N-palmitoyl-[(1S,2R)-(+)-norephedrine]] | > 10000

same assay, conditions: hot ethanol, organic solvent or mixture

Row | Structure (SMILES) | solubility [µg/mL]
33 | CCCCCCCCCCCCCCCC(=O)N1CCOCC1 [Example 29, N-palmitoyl-morpholine] | > 10000

same assay, conditions: result in words

Row | Structure (SMILES) | solubility in water
34 | CCCCCCCCCCCCCCCC(=O)NCC(O)c1ccccc1 (stereo not drawn) [Example 3, N-(2-hydroxy-2-phenylethyl)-palmitoylamide] | scarcely soluble
35 | CCCCCCCCCCCCCCCC(=O)NCCc1ccc(O)cc1 [Example 34, N-(p-hydroxy-phenylethyl)-palmitoylamide] | scarcely soluble
36 | CCCCCCCCCCCCCCCC(=O)N[C@H](CO)c1ccccc1 [Example 2, N-palmitoyl-[(S)-2-amino-2-phenylethanol]] | scarcely soluble
37 | O=C(/C=C/CCCCCCCCC(=O)NCCCO)NCCCO [Example 13, N,N'-bis(3-hydroxypropyl)-trans-2-dodecenediamide] | scarcely soluble
38 | CCCCCCCCCCCCCCCC(=O)N1CCOCC1 [Example 29, N-palmitoyl-morpholine] | scarcely soluble
39 | CCCCCCCCCCCCCCCC(=O)N[C@H](C)[C@@H](O)c1ccccc1 [Example 5, N-palmitoyl-[(1S,2R)-(+)-norephedrine]] | scarcely soluble
